Assay results as given in US10660877B2 (BRISTOL-MYERS SQUIBB COMPANY, priority 2016, dated 2020).
Where two headings read alike, the source gives them in different places.

Assays:
human TLR7 = human TLR7 (Homo sapiens (Human), UniProt Q9NYK1); assay: TLR7 inhibition reporter assay (HEK-Blue cells, SEAP reporter, gardiquimod stimulation); format: cell-based
human TLR8 = human TLR8 (Homo sapiens (Human), UniProt Q9NR97); assay: TLR8 inhibition reporter assay (HEK-Blue cells, SEAP reporter, R848 stimulation);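 note: compounds tested from 0.05 nM to 50 µM, 22 h at 37 °C, SEAP measured with HEK-Blue Detection, inhibition relative to agonist plus DMSO versus a known inhibitor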
human TLR8, sequence (Q9NR97 27-1041): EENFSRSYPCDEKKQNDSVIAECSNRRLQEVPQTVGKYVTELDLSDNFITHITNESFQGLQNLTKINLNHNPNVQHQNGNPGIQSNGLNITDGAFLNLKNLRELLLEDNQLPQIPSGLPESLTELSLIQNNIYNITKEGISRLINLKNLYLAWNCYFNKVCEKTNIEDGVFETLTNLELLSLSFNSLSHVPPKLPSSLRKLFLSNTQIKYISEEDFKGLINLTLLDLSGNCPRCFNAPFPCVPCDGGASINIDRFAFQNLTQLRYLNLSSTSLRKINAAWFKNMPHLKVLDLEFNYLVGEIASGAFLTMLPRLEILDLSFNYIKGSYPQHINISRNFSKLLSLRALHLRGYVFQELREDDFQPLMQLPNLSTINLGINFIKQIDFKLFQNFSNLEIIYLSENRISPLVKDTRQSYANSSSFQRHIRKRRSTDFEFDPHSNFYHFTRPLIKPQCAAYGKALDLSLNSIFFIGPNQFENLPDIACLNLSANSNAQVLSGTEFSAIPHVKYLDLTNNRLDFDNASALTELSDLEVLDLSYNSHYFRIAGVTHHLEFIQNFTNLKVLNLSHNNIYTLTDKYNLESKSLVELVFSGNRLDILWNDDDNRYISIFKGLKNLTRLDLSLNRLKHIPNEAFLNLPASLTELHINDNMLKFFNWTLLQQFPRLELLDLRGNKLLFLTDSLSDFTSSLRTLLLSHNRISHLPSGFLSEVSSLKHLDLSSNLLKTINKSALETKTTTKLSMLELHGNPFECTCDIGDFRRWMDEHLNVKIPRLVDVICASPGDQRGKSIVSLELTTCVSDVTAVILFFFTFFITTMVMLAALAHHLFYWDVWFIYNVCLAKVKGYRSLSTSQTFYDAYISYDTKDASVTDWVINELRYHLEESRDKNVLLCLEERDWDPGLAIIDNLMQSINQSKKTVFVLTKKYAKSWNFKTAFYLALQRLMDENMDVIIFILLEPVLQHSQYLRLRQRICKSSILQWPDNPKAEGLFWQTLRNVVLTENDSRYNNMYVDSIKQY

human TLR9 = human TLR9 (Homo sapiens (Human), UniProt Q9NR96); assay: TLR9 inhibition reporter assay (HEK-Blue cells, SEAP reporter, ODN2006 stimulation);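 note: compounds tested over 0.05 nM to 50 µM, 22 h incubation, inhibition taken as SEAP signal drop from agonist plus DMSO wells toward a known inhibitor control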
human TLR9, sequence (Q9NR96 26-1032): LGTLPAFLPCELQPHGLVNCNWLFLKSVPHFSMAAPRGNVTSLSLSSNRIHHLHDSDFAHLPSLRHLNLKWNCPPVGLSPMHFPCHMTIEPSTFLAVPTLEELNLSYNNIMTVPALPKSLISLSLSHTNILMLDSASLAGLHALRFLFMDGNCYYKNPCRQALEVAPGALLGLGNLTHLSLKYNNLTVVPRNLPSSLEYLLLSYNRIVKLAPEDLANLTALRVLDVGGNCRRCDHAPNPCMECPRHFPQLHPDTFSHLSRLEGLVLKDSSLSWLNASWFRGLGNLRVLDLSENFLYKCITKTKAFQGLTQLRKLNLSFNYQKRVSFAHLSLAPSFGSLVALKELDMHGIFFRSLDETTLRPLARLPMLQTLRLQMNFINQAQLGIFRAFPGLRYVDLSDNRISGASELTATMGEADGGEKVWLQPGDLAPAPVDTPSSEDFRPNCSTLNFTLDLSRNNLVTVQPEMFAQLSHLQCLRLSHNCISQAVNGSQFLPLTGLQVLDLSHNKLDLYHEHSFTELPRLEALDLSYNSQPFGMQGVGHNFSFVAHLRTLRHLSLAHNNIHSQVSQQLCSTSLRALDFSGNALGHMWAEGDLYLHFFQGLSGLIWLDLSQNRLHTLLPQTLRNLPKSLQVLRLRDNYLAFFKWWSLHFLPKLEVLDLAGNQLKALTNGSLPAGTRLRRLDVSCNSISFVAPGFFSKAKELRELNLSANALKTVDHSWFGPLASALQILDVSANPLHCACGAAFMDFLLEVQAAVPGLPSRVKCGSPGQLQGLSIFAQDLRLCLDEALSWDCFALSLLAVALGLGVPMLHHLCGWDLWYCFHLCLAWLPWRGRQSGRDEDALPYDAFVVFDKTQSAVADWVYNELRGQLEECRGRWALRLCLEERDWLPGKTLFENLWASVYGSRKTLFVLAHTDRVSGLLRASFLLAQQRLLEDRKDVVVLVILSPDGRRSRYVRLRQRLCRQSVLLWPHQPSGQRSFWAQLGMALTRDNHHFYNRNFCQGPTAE

[1] = HEK-Blue cells overexpressing human TLR7, gardiquimod 7.5 μM
[2] = read-out: TLR8 IC50, HEK-Blue cells overexpressing human TLR8, R848 15.9 μM
[3] = read-out: TLR9 IC50, HEK-Blue cells overexpressing human TLR9, ODN2006 5 nM
[4] = HEK-Blue cells, gardiquimod 7.5 μM
[5] = read-out: TLR8 IC50, HEK-Blue cells, R848 15.9 μM
[6] = read-out: TLR9 IC50, HEK-Blue cells, ODN2006 5 nM

human TLR7, sequence (Q9NYK1 27-1049): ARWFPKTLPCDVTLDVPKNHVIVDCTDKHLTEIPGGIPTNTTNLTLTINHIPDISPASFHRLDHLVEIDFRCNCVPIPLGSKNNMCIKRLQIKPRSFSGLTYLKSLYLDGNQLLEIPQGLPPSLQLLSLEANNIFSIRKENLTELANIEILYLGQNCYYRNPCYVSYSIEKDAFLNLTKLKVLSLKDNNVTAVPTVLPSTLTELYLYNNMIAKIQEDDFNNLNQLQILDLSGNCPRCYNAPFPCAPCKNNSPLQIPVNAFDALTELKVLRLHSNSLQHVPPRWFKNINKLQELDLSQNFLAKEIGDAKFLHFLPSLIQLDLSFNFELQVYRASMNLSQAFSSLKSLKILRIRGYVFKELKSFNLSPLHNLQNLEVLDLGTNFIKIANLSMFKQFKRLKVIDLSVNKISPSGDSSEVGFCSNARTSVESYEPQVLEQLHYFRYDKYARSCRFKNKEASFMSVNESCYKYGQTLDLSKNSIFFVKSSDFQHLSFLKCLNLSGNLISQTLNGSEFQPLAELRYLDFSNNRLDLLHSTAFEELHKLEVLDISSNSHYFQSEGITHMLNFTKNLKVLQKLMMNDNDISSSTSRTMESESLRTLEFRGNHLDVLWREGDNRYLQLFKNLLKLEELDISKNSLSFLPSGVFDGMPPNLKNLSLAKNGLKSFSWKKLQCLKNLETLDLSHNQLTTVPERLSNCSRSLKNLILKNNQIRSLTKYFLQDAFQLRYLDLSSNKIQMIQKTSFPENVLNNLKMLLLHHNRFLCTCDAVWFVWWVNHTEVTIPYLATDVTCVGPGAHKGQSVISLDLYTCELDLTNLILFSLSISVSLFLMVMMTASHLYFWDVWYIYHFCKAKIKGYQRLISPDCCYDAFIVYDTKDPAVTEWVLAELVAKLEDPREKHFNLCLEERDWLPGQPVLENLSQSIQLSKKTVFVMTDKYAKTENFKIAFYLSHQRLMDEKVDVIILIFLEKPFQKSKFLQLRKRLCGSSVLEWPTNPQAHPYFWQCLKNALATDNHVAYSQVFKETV

IC50 (human TLR7; [1]) | IC50 (human TLR8; [2]) | IC50 (human TLR9; [3]) | IC50 (human TLR7; [4]) | IC50 (human TLR8; [5]) | IC50 (human TLR9; [6]) | IC50 (human TLR8; TLR8 IC50, HEK-Blue cells overexpressing human TLR8, R848 15.9 μM) | IC50 (human TLR9; TLR9 IC50, HEK-Blue cells overexpressing human TLR9, ODN2006 5 nM) | Structure (SMILES)
4.7 nM | 1.8 nM | 3400 nM | – | – | – | – | – | Cc1cc(-c2[nH]c3ccc(C4CCN(CC5COC5)CC4)cc3c2C(C)C)c(F)cn1 [Example 650, 2-(5-fluoro-2-methylpyridin-4-yl)-3-isopropyl-5-(1-(oxetan-3-ylmethyl)piperidin-4-yl)-1H-indole]
7.4 nM | 85.9 nM | 46800 nM | – | – | – | – | – | Cc1cc(-c2[nH]c3ccc(C4CCN(C(=O)CCNc5ncccn5)CC4)cc3c2C(C)C)cc(C)n1 [Example 146, 1-(4-(2-(2,6-dimethylpyridin-4-yl)-3-isopropyl-1H-indol-5-yl)piperidin-1-yl)-3-(pyrimidin-2-ylamino) propan-1-one]
7.6 nM | 15.6 nM | 903 nM | – | – | – | – | – | Cc1cc(-c2[nH]c3ccc(C4CCN(CC(=O)N5CCCC(F)C5)CC4)cc3c2C(C)C)cc(C)n1 (stereo not drawn) [Example 258, 2-(4-(2-(2,6-dimethylpyridin-4-yl)-3-isopropyl-1H-indol-5-yl)piperidin-1-yl)-1-(3-fluoropiperidin-1-yl)ethan-1-one]
2650 nM | 86.6 nM | 599 nM | – | – | – | – | – | CNCCN1CCC(c2ccc3[nH]c(-c4ccnc(C#N)c4)c(C)c3c2)CC1 [Example 755, 4-(3-methyl-5-(1-(2-(methylamino)ethyl)piperidin-4-yl)-1H-indol-2-yl)picolinonitrile]
38.7 nM | 4.2 nM | 40300 nM | – | – | – | – | – | Cc1cc(-c2[nH]c3ccc(C4CCN(Cc5ncco5)CC4)cc3c2C(C)C)c(C)cn1 [Example 699, 2-((4-(2-(2,5-dimethylpyridin-4-yl)-3-isopropyl-1H-indol-5-yl)piperidin-1-yl)methyl)oxazole]
967 nM | 136 nM | 751 nM | – | – | – | – | – | CCc1c(-c2ccnc(Cl)c2)[nH]c2ccc(C3CCN(C4CCN(CC(C)C)CC4)CC3)cc12 [Example 758, 2-(2-chloropyridin-4-yl)-3-ethyl-5-(1′-isobutyl-[1,4′-bipiperidin]-4-yl)-1H-indole]
4.3 nM | 20.9 nM | 831 nM | – | – | – | – | – | Cc1cc(-c2[nH]c3ccc(C4CCN(C(=O)CN5CCC(F)CC5)CC4)cc3c2C(C)C)cc(C)n1 [Example 388, 1-(4-(2-(2,6-dimethylpyridin-4-yl)-3-isopropyl-1H-indol-5-yl)piperidin-1-yl)-2-(4-fluoropiperidin-1-yl)ethan-1-one]
22.8 nM | 6.1 nM | 855 nM | – | – | – | – | – | Cc1cc(-c2[nH]c3ccc(C4CCN(C5CCCOC5)CC4)cc3c2C(C)C)ccn1 (stereo not drawn) [Example 718, 3-isopropyl-2-(2-methylpyridin-4-yl)-5-(1-(tetrahydro-2H-pyran-3-yl)piperidin-4-yl)-1H-indole]
– | – | – | 958 nM | 1940 nM | 46700 nM | – | – | CCc1c(-c2ccnc(C)c2)[nH]c2ccc(C3CCN(CC(=O)O)CC3)cc12 [Example 876, 2-(4-(3-ethyl-2-(2-methylpyridin-4-yl)-1H-indol-5-yl)piperidin-1-yl)acetic acid]
36.4 nM | 42.1 nM | 1540 nM | – | – | – | – | – | Cc1nccc(-c2[nH]c3ccc(C4CCN(C)CC4)cc3c2C(C)C)c1C [Example 637, 2-(2,3-dimethylpyridin-4-yl)-3-isopropyl-5-(1-methylpiperidin-4-yl)-1H-indole]
18.5 nM | 178 nM | 43800 nM | – | – | – | – | – | Cc1cc(-c2[nH]c3ccc(C4CCN(C(=O)C5CCOC5)CC4)cc3c2C(C)C)ccn1 (stereo not drawn) [Example 599, (4-(3-isopropyl-2-(2-methylpyridin-4-yl)-1H-indol-5-yl)piperidin-1-yl)(tetrahydrofuran-3-yl)methanone]
47.4 nM | 224 nM | 45600 nM | – | – | – | – | – | Cc1cc(-c2[nH]c3ccc(C4CCN(C(=O)CCn5nc(C)cc5C)CC4)cc3c2C(C)C)cc(C)n1 [Example 125, 3-(3,5-dimethyl-1H-pyrazol-1-yl)-1-(4-(2-(2,6-dimethylpyridin-4-yl)-3-isopropyl-1H-indol-5-yl)piperidin-1-yl)propan-1-one]
8.5 nM | 6.5 nM | 255 nM | – | – | – | – | – | Cc1cc(-c2[nH]c3ccc(C4CCN(C5CCOC(C)(C)C5)CC4)cc3c2C(C)C)cc(C)n1 (stereo not drawn) [Example 453, 2-(2,6-dimethylpyridin-4-yl)-5-(1-(2,2-dimethyltetrahydro-2H-pyran-4-yl)piperidin-4-yl)-3-isopropyl-1H-indole]
7.8 nM | 35.4 nM | 402 nM | – | – | – | – | – | Cc1cc(-c2[nH]c3ccc(C4CCN(CC(=O)N(C)CCC5(O)CCCC5)CC4)cc3c2C(C)C)cc(C)n1 [Example 303, 2-(4-(2-(2,6-dimethylpyridin-4-yl)-3-isopropyl-1H-indol-5-yl)piperidin-1-yl)-N-(2-(1-hydroxycyclopentyl)ethyl)-N-methylacetamide]
9.2 nM | 5.5 nM | 101 nM | – | – | – | – | – | Cc1cc(-c2[nH]c3ccc(C4CCN(CC5CCN(C(C)C)CC5)CC4)cc3c2C(C)C)ccn1 [Example 742, 3-isopropyl-5-(1-((1-isopropylpiperidin-4-yl)methyl)piperidin-4-yl)-2-(2-methylpyridin-4-yl)-1H-indole]
2.3 nM | 7.6 nM | 474 nM | – | – | – | – | – | Cc1cc(-c2[nH]c3ccc(C4CCN(C(=O)CNC5CCC5)CC4)cc3c2C(C)C)cc(C)n1 [Example 334, 2-(cyclobutylamino)-1-(4-(2-(2,6-dimethylpyridin-4-yl)-3-isopropyl-1H-indol-5-yl)piperidin-1-yl)ethan-1-one]
– | – | – | 117 nM | 47.2 nM | 23 nM | – | – | Cc1cc(-c2[nH]c3ccc(C4CCN(C5CCN(C(C)C)CC5)CC4)cc3c2C)ccn1 [Example 811, 5-(1′-isopropyl-[1,4′-bipiperidin]-4-yl)-3-methyl-2-(2-methylpyridin-4-yl)-1H-indole]
3.5 nM | 14.8 nM | 550 nM | – | – | – | – | – | Cc1cc(-c2[nH]c3ccc(C4CCN(C5CC(C)OC(C)C5)CC4)cc3c2C(C)C)ccn1 (stereo not drawn) [Example 713, 5-(1-(2,6-dimethyltetrahydro-2H-pyran-4-yl)piperidin-4-yl)-3-isopropyl-2-(2-methylpyridin-4-yl)-1H-indole]
42.3 nM | 6.5 nM | 20100 nM | – | – | – | – | – | Cc1cc(-c2[nH]c3ccc(C4CCN(Cc5nncn5C)CC4)cc3c2C(C)C)c(C)cn1 [Example 736, 2-(2,5-dimethylpyridin-4-yl)-3-isopropyl-5-(1-((4-methyl-4H-1,2,4-triazol-3-yl)methyl)piperidin-4-yl)-1H-indole]
2.9 nM | 1.2 nM | 2300 nM | – | – | – | – | – | Cc1nccc(-c2[nH]c3ccc(C4CCNCC4)cc3c2C(C)C)c1F [Example 53, 2-(3-fluoro-2-methylpyridin-4-yl)-3-isopropyl-5-(piperidin-4-yl)-1H-indole]
536 nM | 3140 nM | 122 nM | – | – | – | – | – | Cc1cc(-c2cc3cc(C4CCNCC4)ccc3[nH]2)cc(C)n1 [Example 94, 2-(2,6-dimethylpyridin-4-yl)-5-(piperidin-4-yl)-1H-indole]
4.5 nM | 21 nM | 742 nM | – | – | – | – | – | Cc1cc(-c2[nH]c3ccc(C4CCN(C(=O)CN5C(C)CCC5C)CC4)cc3c2C(C)C)cc(C)n1 (stereo not drawn) [Example 368, 1-(4-(2-(2,6-dimethylpyridin-4-yl)-3-isopropyl-1H-indol-5-yl)piperidin-1-yl)-2-(2,5-dimethylpyrrolidin-1-yl)ethan-1-one]
6.5 nM | – | – | – | – | – | 54.1 nM | 1890 nM | Cc1cc(-c2[nH]c3ccc(C4CCN(C(=O)CNCC(C)O)CC4)cc3c2C(C)C)cc(C)n1 (stereo not drawn) [Example 367, 1-(4-(2-(2,6-dimethylpyridin-4-yl)-3-isopropyl-1H-indol-5-yl)piperidin-1-yl)-2-((2-hydroxypropyl)amino)ethan-1-one]
277 nM | 181 nM | 114 nM | – | – | – | – | – | CCc1c(-c2ccnc(N)c2)[nH]c2ccc(C3CCNCC3)cc12 [Example 69, 4-(3-ethyl-5-(piperidin-4-yl)-1H-indol-2-yl) pyridin-2-amine]
4950 nM | 514 nM | 1900 nM | – | – | – | – | – | CCc1c(-c2cc(Cl)ncc2OC)[nH]c2ccc(C3CCN(C4CCN(CC(C)C)CC4)CC3)cc12 [Example 763, 2-(2-chloro-5-methoxypyridin-4-yl)-3-ethyl-5-(1′-isobutyl-[1,4′-bipiperidin]-4-yl)-1H-indole]
5.4 nM | 12.4 nM | 759 nM | – | – | – | – | – | COC1CN(C(=O)CN2CCC(c3ccc4[nH]c(-c5cc(C)nc(C)c5)c(C(C)C)c4c3)CC2)C1 [Example 226, 2-(4-(2-(2,6-dimethylpyridin-4-yl)-3-isopropyl-1H-indol-5-yl)piperidin-1-yl)-1-(3-methoxyazetidin-1-yl)ethan-1-one]
13.1 nM | 12 nM | 971 nM | – | – | – | – | – | CNCCC(=O)N1CCC(c2ccc3[nH]c(-c4ccnc(C)c4)c(C(C)C)c3c2)CC1 [Example 570, 1-(4-(3-isopropyl-2-(2-methylpyridin-4-yl)-1H-indol-5-yl)piperidin-1-yl)-3-(methylamino)propan-1-one]
14.4 nM | 2.9 nM | 432 nM | – | – | – | – | – | Cc1cc(-c2[nH]c3ccc(C4CCN(C5CCCNC5O)CC4)cc3c2C(C)C)ccn1 (stereo not drawn) [Example 702, 4-(3-isopropyl-2-(2-methylpyridin-4-yl)-1H-indol-5-yl)-[1,3′-bipiperidin]-2′-ol]
42700 nM | 635 nM | 6100 nM | – | – | – | – | – | CC(C)c1c(-c2ccncc2NC(=O)C(C)(C)C)[nH]c2ccc(C3CCNCC3)cc12 [Example 37, N-(4-(3-isopropyl-5-(piperidin-4-yl)-1H-indol-2-yl)pyridin-3-yl) pivalamide]
